From patent US10851132B2, “Protein based adhesive composition and method” (SEWON BIOTECHNOLOGY INC., priority 2015, dated 2020)
Ends that are not written are not given here.

What was measured:
[1] = Affinity chromatography with GlcNAc-agarose beads; format: binding; conditions: Examples 11 and 12; FIG. 11, FIG. 12
Experimental: (§1) For chromatography, heparin-agarose beads (Biovision) and GlcNAc-agarose beads (Sigma) were used. 10 ng of FITC labelled peptide (F-peptide) was mixed in PBS-T buffer with heparin-agarose beads and GlcNAc-agarose beads, each precoated with BSA, and incubated at RT for 10 min. Then the mixture was washed 3 times with PBS-T buffer and resuspended in PBS for fluorescent measurement. For competitive binding experiments, the present peptide not labelled with FITC (Cold) was added to the mixture at various ratios of 1:1, 1:10 (10 times) and 1:100 (100 times) and allowed for incubation followed by fluorescent measurement. As a negative control, only FITC dyes were used to react with the beads. Further fluorescent signals from a sample containing just beads suspended in PBS were used as a blank.
(§2) The peptides as listed and described in Table 2 were synthesized as described in Example 1 and tested for its adhesiveness to heparin and N-Acetylglucosamine (GAG) according to the methods described in Example 5.

[2] = Affinity chromatography with heparin-agarose beads; format: binding; conditions: Examples 11 and 12; FIG. 11, FIG. 12
Experimental: as §1, §2

MC3T3-E1 = assay: Comparative cell attachment experiment with soluble RGDs (CCK-8); format: cell-based, Mouse; conditions: RGDs peptides used alone, 0-1000 μM; FIG. 4C
Experimental: The present peptide A7-1 (10 μM) or A7-1 together with soluble RGDs peptide (0, 10, 100 and 1000 μM) for competition assay were added to anchorage dependent cells MC3T3-E1 in a test tube and incubated for 10 min. Then the cells were transferred to a culture plate and incubated for 10 min in a thermostatic incubator to allow the cells to attach. After 10 min, the medium was removed and the cells were washed 2 times with PBS to remove any unattached cells and a fresh medium without the peptide and CCK-8 (Dojindo) were added to the cells and incubated for 1 hr in a thermostatic incubator. Then the absorbance was measured at 450 nm. The medium mixed with CCK-8 only was used as a blank.

osteoblast MC3TC-E1 = assay: Safety in osteoblasts: proliferation, viability, differentiation; format: cell-based, Mouse; conditions: 0.1, 1, 10 and 100 μM
Experimental: The safety of the present peptides was determined using osteoblast MC3TC-E1. Osteoblasts were treated with A7-1 peptide as prepared in Example 1 at the concentration of 0.1 μM, 1 μM, 10 μM and 100 μM. Then the effect of the present peptide on the proliferation (FIG. 8A), viability (FIG. 8B) and differentiation (FIG. 8C) on the cells was examined. For testing the effect on the […], MC3T3-E1 and C2C12 cell lines were treated with BMP (rhBMP2, 10 ng/ml for 3 days) and differentiation medium for bone formation for 6 days to induce differentiation. The results were examined by cell staining. It is observed that the present peptide has no effect on the proliferation rate, viability rate or whether or not the cells are differentiated.

Substance: KQLVVKFRALPC [SEQ ID NO: 21]
- adhesiveness to N-Acetylglucosamine (GAG) [1]: working
- adhesiveness to heparin [2]: working

Substance: RGDs: soluble RGDs peptides used as a competitor; binds to adhesive molecule integrins (RGDS)
- adhesiveness of the cells (MC3T3-E1): decreased in a concentration dependent manner

Substance: RQLVVKFRALPC [A7-1]
- effect on proliferation rate (osteoblast MC3TC-E1; FIG. 8A): no effect
- effect on viability rate (osteoblast MC3TC-E1; FIG. 8B): no effect
- effect on whether or not the cells are differentiated (osteoblast MC3TC-E1; FIG. 8C): no effect
